Experimental data published in patent publication US12473289B2, “Heterocyclic compounds as delta-5 desaturase inhibitors and methods of use” (Amgen Inc., priority 2019, dated 2025).

How the values were obtained:
[1] = target: Delta-5-Desaturase (D5D) (Homo sapiens (Human), UniProt O60427); test: In vitro measurement of Delta-5-Desaturase inhibitory activity using DGLA-CoA and Arachidonyl-CoA mass spectrometric assays; assay type: biochemical; conditions: membrane preparations of D5D-overexpressing HEK293 6E cells; averaged over at least two independent runs
How it was run: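 Membranes from D5D-overexpressing HEK293 6E cells (10 μg/mL final) in Tris pH 7.5 with MgCl2, octyl glucoside and TCEP were mixed 1:1 with substrate solution (0.01 mM DGLA, 0.25 mM NADH, 0.25 mM ATP, 0.05 mM CoA) for 1 h at ambient temperature. RapidFire SPE-MS/MS MRM; IC50 by 4-parameter fit, ≥2 runs.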

[2] = target: Delta-5-Desaturase (D5D) (Mus musculus (Mouse), UniProt Q920L1); test: In vivo measurement of Delta-5-Desaturase inhibitory activity (plasma AA/DGLA ratio in DIO mice); conditions: single oral dose 30 mg/kg, read-out: Average % D5D Inhibition expressed as Plasma Endogenous AA/DGLA Ratio
Protocol: In vivo Measurement of Delta-5-Desaturase Inhibitory Activity
Diet-induced obese (DIO; Jackson Laboratories strain #3800050) mice were used to screen for pharmacodynamic (PD) activity of test compounds. Generally, 14 to 24 week old DIO mice, were administered test compounds formulated in the vehicle of 2% hydroxypropyl methylcellulose (HPMC) and 1% Tween80. Animals were dosed on body weight by oral gavage with a single dose (30 mg/kg) for PD studies. Necropsy included plasma collection for PUFA analysis. 10 μl of plasma or standards diluted in surrogate matrix (65 g/l bovine serum albumin in Dulbecco's phosphate-buffered saline) were mixed with 10 μl of an internal standard (100 μM alpha-linolenic acid-d14 (ALA-d14, Cayman Chemical)) in a 96 well plate. 100 μl of 2N NAOH was added to the mixture for subsequent saponification at 65° C. for 1 hour. The mixture was then acidified with 50 μl of formic acid followed by two consecutive hexane extractions. Hexane (500 μl) was added and the mixture thoroughly mixed by vortexing, followed by centrifugation at 4,000 rpm for 15 min. The hexane phase was transferred to a new 1 ml 96 well plate and the remaining aqueous layer was extracted with hexane. The organic extracts were combined and the solvent was removed by placing the plate under nitrogen gas at 55° C. 250 μl of 90% methanol was added to the plate followed by vortexing for 2 minutes. 200 μl of the samples were transferred to a new 96 well polypropylene plate. The samples were analyzed on a LC-MS/MS for the following PUFAs: arachidonic acid (AA), dihomo-gamma-linolenic acid (DGLA), with ALA-d14 as the internal standard. Description of the LC-MS/MS method: 5 μl of sample was injected onto a Poroshell 120 EC-C18 3.0×50 mm, 1.9 μm id column. […] The PUFA peak areas were quantified by using the SCIEX Analyst software. […] The relative decrease of the AA/DGLA ratio of the test compound administered group relative to the vehicle administered group was calculated and used as an index for the degree of D5D inhibition.
The results presented in Table 27 were obtained using certain compounds described herein in the in vivo protocol described above.

Chain of Delta-5-Desaturase (D5D) (Homo sapiens (Human), UniProt O60427) (O60427 whole entry, species assumed): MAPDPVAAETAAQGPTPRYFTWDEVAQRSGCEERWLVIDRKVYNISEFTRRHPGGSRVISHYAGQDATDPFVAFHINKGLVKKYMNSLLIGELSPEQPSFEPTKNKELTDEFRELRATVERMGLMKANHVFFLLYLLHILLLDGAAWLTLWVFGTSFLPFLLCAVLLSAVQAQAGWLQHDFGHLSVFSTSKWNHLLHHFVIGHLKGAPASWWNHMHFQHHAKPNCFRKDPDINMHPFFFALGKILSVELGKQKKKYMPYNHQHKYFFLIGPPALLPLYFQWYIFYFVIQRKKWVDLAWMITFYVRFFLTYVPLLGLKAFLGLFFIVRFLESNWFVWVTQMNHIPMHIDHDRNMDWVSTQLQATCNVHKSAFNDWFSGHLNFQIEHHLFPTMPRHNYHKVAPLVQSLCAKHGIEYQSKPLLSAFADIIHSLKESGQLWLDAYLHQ
Chain of Delta-5-Desaturase (D5D) (Mus musculus (Mouse), UniProt Q920L1) (Q920L1 whole entry): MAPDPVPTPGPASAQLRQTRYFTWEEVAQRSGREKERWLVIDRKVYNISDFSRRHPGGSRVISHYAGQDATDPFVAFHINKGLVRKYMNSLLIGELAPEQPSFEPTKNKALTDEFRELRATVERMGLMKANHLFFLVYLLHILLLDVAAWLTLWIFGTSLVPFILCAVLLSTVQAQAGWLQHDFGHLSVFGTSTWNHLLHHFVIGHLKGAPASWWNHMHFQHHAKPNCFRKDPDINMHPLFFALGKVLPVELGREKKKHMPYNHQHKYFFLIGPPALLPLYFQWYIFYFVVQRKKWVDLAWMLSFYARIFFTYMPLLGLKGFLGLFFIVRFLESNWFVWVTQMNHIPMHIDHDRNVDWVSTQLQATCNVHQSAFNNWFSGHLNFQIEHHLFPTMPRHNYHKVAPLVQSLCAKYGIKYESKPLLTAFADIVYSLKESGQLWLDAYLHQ

`O=c1c(-c2cnn(CC(F)(F)C(F)(F)F)c2)c(C(F)(F)F)nc2ccc(Cl)cn12` [Example 35, 7-Chloro-3-[1-(2,2,3,3,3-pentafluoropropyl)-1H-pyrazol-4-yl]-2-(trifluoromethyl)-4H-pyrido[1,2-a]pyrimidin-4-one] showed an IC50 [1] of 3.8 nM and an inhibition in vivo at 30 mg/kg [2] of 75%.

With `COc1ccn2c(=O)c(-c3ccc(OCC(F)(F)F)c(F)c3)c(C(F)(F)F)nc2n1` [Example 1-73, 3-(3-fluoro-4-(2,2,2-trifluoroethoxy)phenyl)-8-methoxy-2-(trifluoromethyl)-4H-pyrimido[1,2-a]pyrimidin-4-one] the IC50 [1] was 22 nM and the inhibition in vivo at 30 mg/kg [2] was 72%.

With `[2H]C([2H])([2H])Oc1ccn2c(=O)c(-c3ccc(OCC(F)(F)F)cc3)c(C(F)(F)F)nc2n1` [Example 1-59, 8-(methyloxy-d3)-3-(4-(2,2,2-trifluoroethoxy)phenyl)-2-(trifluoromethyl)-4H-pyrimido[1,2-a]pyrimidin-4-one] the IC50 [1] was 14.5 nM and the inhibition in vivo at 30 mg/kg [2] was 73%.

For `COc1cc2nc(C(F)(F)F)c(-c3cnn(CC(F)(F)C(F)(F)F)c3)c(=O)n2cc1F` [Example 33, 7-Fluoro-8-methoxy-3-[1-(2,2,3,3,3-pentafluoropropyl)-1H-pyrazol-4-yl]-2-(trifluoromethyl)-4H-pyrido[1,2-a]pyrimidin-4-one], the IC50 [1] was 20.9 nM and the inhibition in vivo at 30 mg/kg [2] was 71%.

`[2H]C([2H])([2H])Oc1ccn2c(=O)c(-c3cnn(CC(F)(F)C(F)(F)F)c3)c(C(F)(F)F)nc2n1` [Example 3-2, 8-(methyloxy-d3)-3-(1-(2,2,3,3,3-pentafluoropropyl)-1H-pyrazol-4-yl)-2-(trifluoromethyl)-4H-pyrimido[1,2-a]pyrimidin-4-one] was tested, and the IC50 [1] was 34.2 nM and the inhibition in vivo at 30 mg/kg [2] was 67%.

`COc1ccn2c(=O)c(-c3ccc(OCC(F)(F)F)cc3)c(CF)nc2c1` [Example 1-58, 2-(fluoromethyl)-8-methoxy-3-(4-(2,2,2-trifluoroethoxy)phenyl)-4H-pyrido[1,2-a]pyrimidin-4-one] gave an IC50 [1] of 66.1 nM and an inhibition in vivo at 30 mg/kg [2] of 74%.

In the case of `COc1ccn2c(=O)c(-c3ccc(OC(F)(F)F)cc3)c(C(F)(F)F)nc2n1` [Example 1-72, 8-methoxy-3-(4-(trifluoromethoxy)phenyl)-2-(trifluoromethyl)-4H-pyrimido[1,2-a]pyrimidin-4-one], the IC50 [1] is reported as 57.2 nM and the inhibition in vivo at 30 mg/kg [2] is reported as 54%.

`[2H]C([2H])([2H])Oc1ccn2c(=O)c(-c3ccc(OCC(F)(F)F)cc3)c(C(F)(F)F)nc2c1` [Example 11-2, 8-(methyloxy-d3)-3-(4-(2,2,2-trifluoroethoxy)phenyl)-2-(trifluoromethyl)-4H-pyrido[1,2-a]pyrimidin-4-one] was tested, and the IC50 [1] was 4 nM and the inhibition in vivo at 30 mg/kg [2] was 79%.

`O=c1ccn2c(=O)c(-c3ccc(OCC(F)(F)F)cc3)c(C(F)(F)F)[nH]c2c1` [Example 10-1, 3-(4-(2,2,2-Trifluoroethoxy)phenyl)-2-(trifluoromethyl)-4H-pyrido[1,2-a]pyrimidine-4,8(1H)-dione] gave an IC50 [1] of 43.8 nM and an inhibition in vivo at 30 mg/kg [2] of 74%.

`COc1ccn2c(=O)c(-c3ccc(O[C@@H](C)C#N)cc3)c(C(F)(F)F)nc2c1` [Example 8-9, (2S)-2-(4-(8-methoxy-4-oxo-2-(trifluoromethyl)-4H-pyrido[1,2-a]pyrimidin-3-yl)phenoxy)propanenitrile] gave an IC50 [1] of 11.6 nM and an inhibition in vivo at 30 mg/kg [2] of 79%.

With `COc1ccn2c(=O)c(-c3ccc(OCC(F)(F)F)nc3)c(C(F)(F)F)nc2c1` [Example 7-4] the IC50 [1] was 27 nM and the inhibition in vivo at 30 mg/kg [2] was 60%.

With `CCc1nc2cc(OC)ccn2c(=O)c1-c1ccc(OCC(F)(F)F)cc1` [Example 1-77, 2-ethyl-8-methoxy-3-(4-(2,2,2-trifluoroethoxy)phenyl)-4H-pyrido[1,2-a]pyrimidin-4-one] the IC50 [1] was 6.6 nM and the inhibition in vivo at 30 mg/kg [2] was 75%.

`Nc1ccn2c(=O)c(-c3cnn(CC(F)(F)C(F)(F)F)c3)c(C(F)(F)F)nc2c1` [Example 6-1, 8-Amino-3-(1-(2,2,3,3,3-pentafluoropropyl)-1H-pyrazol-4-yl)-2-(trifluoromethyl)-4H-pyrido[1,2-a]pyrimidin-4-one] gave an IC50 [1] of 14.8 nM and an inhibition in vivo at 30 mg/kg [2] of 51%.

In the case of `CCOc1ccn2c(=O)c(-c3ccc(OCC(F)(F)F)cc3)c(C(F)(F)F)nc2c1` [Example 11-3, 8-ethoxy-3-(4-(2,2,2-trifluoroethoxy)phenyl)-2-(trifluoromethyl)-4H-pyrido[1,2-a]pyrimidin-4-one], the IC50 [1] is reported as 27.5 nM and the inhibition in vivo at 30 mg/kg [2] is reported as 37%.

Work on `COc1ccn2c(=O)c(-c3ccc(OCC(F)F)cc3F)c(C(F)(F)F)nc2c1` [Example 1-41, 3-(4-(2,2-difluoroethoxy)-2-fluorophenyl)-8-methoxy-2-(trifluoromethyl)-4H-pyrido[1,2-a]pyrimidin-4-one] yielded an IC50 [1] of 24.9 nM and an inhibition in vivo at 30 mg/kg [2] of 63%.

`COc1ccn2c(=O)c(-c3ccc(OCC(F)(F)F)cc3)c(OC)nc2c1` [Example 1-80, 2,8-dimethoxy-3-(4-(2,2,2-trifluoroethoxy)phenyl)-4H-pyrido[1,2-a]pyrimidin-4-one] gave an IC50 [1] of 12.5 nM and an inhibition in vivo at 30 mg/kg [2] of 57%.

`COc1ccn2c(=O)c(-c3ccc(OCC(F)(F)F)cc3)c(C(F)F)nc2c1` [Example 1-15, 2-(difluoromethyl)-8-methoxy-3-(4-(2,2,2-trifluoroethoxy)phenyl)-4H-pyrido[1,2-a]pyrimidin-4-one] showed an IC50 [1] of 12.4 nM and an inhibition in vivo at 30 mg/kg [2] of 70%.

Work on `O=c1c(-c2ccc(OCC(F)(F)F)cc2)c(C(F)(F)F)nc2cc(CF)ccn12` [Example 13-4, 8-(fluoromethyl)-3-(4-(2,2,2-trifluoroethoxy)phenyl)-2-(trifluoromethyl)-4H-pyrido[1,2-a]pyrimidin-4-one] yielded an IC50 [1] of 9.4 nM and an inhibition in vivo at 30 mg/kg [2] of 75%.

`O=c1c(-c2cnn(CC(F)(F)C(F)(F)F)c2)c(C(F)(F)F)nc2cc(OCF)ccn12` [Example 45, 8-(Fluoromethoxy)-3-[1-(2,2,3,3,3-pentafluoropropyl)-1H-pyrazol-4-yl]-2-(trifluoromethyl)-4H-pyrido[1,2-a]pyrimidin-4-one] showed an IC50 [1] of 10.1 nM and an inhibition in vivo at 30 mg/kg [2] of 62%.

`O=c1c(-c2ccc(OCC(F)(F)F)cc2)c(C(F)(F)F)nc2cc(CO)ccn12` [Example 13-3, 8-(hydroxymethyl)-3-(4-(2,2,2-trifluoroethoxy)phenyl)-2-(trifluoromethyl)-4H-pyrido[1,2-a]pyrimidin-4-one] gave an IC50 [1] of 5.6 nM and an inhibition in vivo at 30 mg/kg [2] of 77%.

In the case of `COc1ccn2c(=O)c(-c3ccc(OCC4CC4(F)F)cc3)c(C(F)(F)F)nc2c1` (centres unmarked) [Example 1-4, 3-(4-((2,2-difluorocyclopropyl)methoxy)phenyl)-8-methoxy-2-(trifluoromethyl)-4H-pyrido[1,2-a]pyrimidin-4-one], the IC50 [1] is reported as 6.6 nM and the inhibition in vivo at 30 mg/kg [2] is reported as 60%.

`Nc1ccn2c(=O)c(-c3ccc(OCC(F)(F)F)cc3)c(C(F)(F)F)nc2c1` [Example 6-2, 8-amino-3-(4-(2,2,2-trifluoroeth-oxy)phenyl)-2-(trifluoromethyl)-4H-pyrido[1,2-a]pyrimidin-4-one] was tested, and the inhibition in vivo at 30 mg/kg [2] was 66%.

`COc1ccn2c(=O)c(-c3ccc(OC(F)(F)F)cc3F)c(C(F)(F)F)nc2c1` [Example 1-9, 3-(2-fluoro-4-(trifluoromethoxy)phenyl)-8-methoxy-2-(trifluoromethyl)-4H-pyrido[1,2-a]pyrimidin-4-one] showed an inhibition in vivo at 30 mg/kg [2] of 35%.
